This assay deals with sucrose loaded normoglycaemic rats. Briefly: Antihyperglycaemic activity on sucrose loaded normoglycaemic rats (SLM). Type of assay: in vivo, rat. The following applies: for Blood Glucose Profile 0 min: 0 min (fasting baseline); for Blood Glucose Profile 0 min / Blood Glucose Profile 30 min / Blood Glucose Profile 60 min / Blood Glucose Profile 90 min / Blood Glucose Profile 120 min / % Antihyperglycaemic activity SLM: sucrose loaded normoglycaemic rats, compounds 100 mg/kg, Januvia 50 mg/kg; for Blood Glucose Profile 0 min / Blood Glucose Profile 30 min / Blood Glucose Profile 60 min / Blood Glucose Profile 90 min / Blood Glucose Profile 120 min: mean ± S.E.; for Blood Glucose Profile 30 min: 30 min post sucrose; for Blood Glucose Profile 60 min: 60 min post sucrose; for Blood Glucose Profile 90 min: 90 min post sucrose; for Blood Glucose Profile 120 min: 120 min post sucrose; for % Antihyperglycaemic activity SLM: AUC vs control, oral; for improvement in glucose tolerance: sucrose loaded normoglycemic rats, 100 mg/kg b.w., result in words. As to the method:
The test compounds and standard antidiabetic drug Januvia were prepared in 1.0% freshly prepared Gum acacia.
Assessment of Test Compounds for Antihyperglycaemic Activity on Sucrose Loaded Normoglycaemic Rats—
In order to search towards the antidiabetic activity, synthetic compounds were preliminary evaluated for their effect on glucose tolerance in normal rats. It is an indirect effect of measuring antihyperglycaemic activity. Male albino rats of Wistar strain of body weight 160±20 g were selected for this study. The blood glucose of each animal was checked by glucometer using glucostrips (Accu-check) after 16 hours starvation. Animals showing blood glucose between 60 to 80 mg/dl (3.33 to 4.44 mM) were divided into groups of five to six animals in each. Rats of experimental group were administered suspension of the desired test compound orally (made in 1.0% gum acacia). The standard dose decided for Synthetic compounds is 100 mg/kg body weight. Animals of control group were given an equal amount of 1.0% gum acacia. A sucrose load (10.0 g/kg) was given to each animal orally exactly after 30 min post administration of the test sample/vehicle. Blood glucose profile of each rat was again determined at 30, 60, 90 and 120 min post administration of sucrose by glucometer. Food but not water was withheld from the cages during the course of experimentation. Quantitative glucose tolerance of each animal was calculated by area under curve (AUC) method using Prism Software. Comparing the AUC of experimental and control groups determined the percentage antihyperglycaemic activity. Statistical comparison was made by Dunnett's test.
Quantitative glucose tolerance of each animal was calculated by the area under the curve (AUC) method using Prism Software. The area under the curve of the control group and the experimental group was compared to determine the percent antihyperglycaemic activity. Statistical comparisons were performed by one-way analysis of variance (ANOVA), followed by Dunnett's multiple range test (DMRT). The results were considered statistically significant if the ‘p’ values were 0.05 or less. Results were expressed as mean±SEM.

SMILES strings stand for the structures.

As for `COC(=O)c1c(SC)cc(-c2ccc(C)cc2)c2c1-c1cn(-c3ccccc3)nc1CC2` [compound 5, methyl 8-(methylthio)-2-phenyl-6-p-tolyl-4,5-dihydro-2H-benzo[e]indazole-9-carboxylate], the “Blood Glucose Profile 0 min” value turned out to be 66.2 ± 3.05 mg/dL, the “Blood Glucose Profile 30 min” value was 107.4 ± 7.76 mg/dL, the “Blood Glucose Profile 60 min” value stood at 104.8 ± 5.12 mg/dL and the “Blood Glucose Profile 90 min” value amounted to 108.3 ± 3.59 mg/dL. Further, the “Blood Glucose Profile 120 min” value stood at 109.8 ± 7.86 mg/dL, the “% Antihyperglycaemic activity SLM” value came out at 35.8% and the “improvement in glucose tolerance” value was “significant improvement in glucose tolerance”.
On to `COC(=O)c1c(SC)cc(-c2cccc3ccccc23)c2c1-c1cn(-c3ccccc3)nc1CC2` [compound 6, methyl 8-(methylthio)-6-(naphthalen-1-yl)-2-phenyl-4,5-dihydro-2H-benzo[e]indazole-9-carboxylate], for which the “Blood Glucose Profile 0 min” value was 66.2 ± 2.63 mg/dL, the “Blood Glucose Profile 30 min” value turned out to be 120.0 ± 7.30 mg/dL, the “Blood Glucose Profile 60 min” value was 111.2 ± 7.30 mg/dL and the “Blood Glucose Profile 90 min” value turned out to be 110.4 ± 4.73 mg/dL. Besides, the “Blood Glucose Profile 120 min” value stood at 107.4 ± 4.95 mg/dL, the “% Antihyperglycaemic activity SLM” value was determined as 23.5% and the “improvement in glucose tolerance” value was “significant improvement in glucose tolerance”.

These data come from patent US9096539B2, “Substituted 4,5-dihydro-2H-benzo[e]indazole-9-carboxylates for the treatment of diabetes and related disorders” (Council of Scientific & Industrial Research, priority 2012, dated 2015).
